Assay results from ChEMBL document CHEMBL1129456, “Synthesis and evaluation of two positron-labeled nitric oxide synthase inhibitors, S-[11C]methylisothiourea and S-(2-[18F]fluoroethyl)isothiourea, as potential positron emission tomography tracers” (J Med Chem, 1996).

How the values were obtained:
[1] = target: Nitric oxide synthase, inducible (Homo sapiens, UniProt P35228); experiment: The compound was evaluated for the inhibitory potencies using human Inducible nitric oxide synthase (hiNOS)
Nitric oxide synthase 3 = target: T1, Nitric oxide synthase 3 (Homo sapiens, UniProt P29474); experiment: The compound was evaluated for the inhibitory potencies using human Endothelial nitric oxide synthase
T1 sequence (P29474 whole entry): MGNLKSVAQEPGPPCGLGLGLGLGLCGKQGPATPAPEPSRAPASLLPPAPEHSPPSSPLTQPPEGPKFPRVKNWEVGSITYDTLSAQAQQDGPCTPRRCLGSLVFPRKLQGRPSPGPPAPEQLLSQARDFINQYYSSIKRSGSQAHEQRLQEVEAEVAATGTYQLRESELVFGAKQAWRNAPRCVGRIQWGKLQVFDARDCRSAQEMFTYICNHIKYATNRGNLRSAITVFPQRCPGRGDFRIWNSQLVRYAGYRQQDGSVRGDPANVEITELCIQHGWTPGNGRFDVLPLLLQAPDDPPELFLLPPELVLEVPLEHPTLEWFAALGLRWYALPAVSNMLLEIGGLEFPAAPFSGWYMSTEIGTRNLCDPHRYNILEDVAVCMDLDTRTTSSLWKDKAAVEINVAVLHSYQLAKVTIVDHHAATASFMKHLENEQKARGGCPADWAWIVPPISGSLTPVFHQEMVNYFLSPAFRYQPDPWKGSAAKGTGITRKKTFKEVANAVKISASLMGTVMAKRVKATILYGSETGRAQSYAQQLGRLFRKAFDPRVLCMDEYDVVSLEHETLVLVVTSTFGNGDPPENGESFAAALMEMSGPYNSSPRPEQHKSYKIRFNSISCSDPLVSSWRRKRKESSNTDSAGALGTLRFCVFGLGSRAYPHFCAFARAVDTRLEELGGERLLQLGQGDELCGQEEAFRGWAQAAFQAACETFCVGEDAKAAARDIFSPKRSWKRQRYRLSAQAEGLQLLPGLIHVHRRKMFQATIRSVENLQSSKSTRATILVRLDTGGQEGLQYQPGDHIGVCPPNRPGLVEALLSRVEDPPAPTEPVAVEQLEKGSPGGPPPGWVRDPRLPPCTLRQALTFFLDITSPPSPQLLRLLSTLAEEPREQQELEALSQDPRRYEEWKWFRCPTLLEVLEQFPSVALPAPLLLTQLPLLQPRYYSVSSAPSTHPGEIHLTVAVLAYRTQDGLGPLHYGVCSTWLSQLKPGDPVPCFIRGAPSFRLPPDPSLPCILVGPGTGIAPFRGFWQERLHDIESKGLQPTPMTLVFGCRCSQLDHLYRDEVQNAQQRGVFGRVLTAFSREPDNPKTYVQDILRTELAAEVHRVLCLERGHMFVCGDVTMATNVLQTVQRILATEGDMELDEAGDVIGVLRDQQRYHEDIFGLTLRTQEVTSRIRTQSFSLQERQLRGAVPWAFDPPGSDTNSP

[2] = Partition coefficient measured by octanol/water extraction at pH 6.8; assay type: physicochemical

Chain of Nitric oxide synthase, inducible (P35228 whole entry): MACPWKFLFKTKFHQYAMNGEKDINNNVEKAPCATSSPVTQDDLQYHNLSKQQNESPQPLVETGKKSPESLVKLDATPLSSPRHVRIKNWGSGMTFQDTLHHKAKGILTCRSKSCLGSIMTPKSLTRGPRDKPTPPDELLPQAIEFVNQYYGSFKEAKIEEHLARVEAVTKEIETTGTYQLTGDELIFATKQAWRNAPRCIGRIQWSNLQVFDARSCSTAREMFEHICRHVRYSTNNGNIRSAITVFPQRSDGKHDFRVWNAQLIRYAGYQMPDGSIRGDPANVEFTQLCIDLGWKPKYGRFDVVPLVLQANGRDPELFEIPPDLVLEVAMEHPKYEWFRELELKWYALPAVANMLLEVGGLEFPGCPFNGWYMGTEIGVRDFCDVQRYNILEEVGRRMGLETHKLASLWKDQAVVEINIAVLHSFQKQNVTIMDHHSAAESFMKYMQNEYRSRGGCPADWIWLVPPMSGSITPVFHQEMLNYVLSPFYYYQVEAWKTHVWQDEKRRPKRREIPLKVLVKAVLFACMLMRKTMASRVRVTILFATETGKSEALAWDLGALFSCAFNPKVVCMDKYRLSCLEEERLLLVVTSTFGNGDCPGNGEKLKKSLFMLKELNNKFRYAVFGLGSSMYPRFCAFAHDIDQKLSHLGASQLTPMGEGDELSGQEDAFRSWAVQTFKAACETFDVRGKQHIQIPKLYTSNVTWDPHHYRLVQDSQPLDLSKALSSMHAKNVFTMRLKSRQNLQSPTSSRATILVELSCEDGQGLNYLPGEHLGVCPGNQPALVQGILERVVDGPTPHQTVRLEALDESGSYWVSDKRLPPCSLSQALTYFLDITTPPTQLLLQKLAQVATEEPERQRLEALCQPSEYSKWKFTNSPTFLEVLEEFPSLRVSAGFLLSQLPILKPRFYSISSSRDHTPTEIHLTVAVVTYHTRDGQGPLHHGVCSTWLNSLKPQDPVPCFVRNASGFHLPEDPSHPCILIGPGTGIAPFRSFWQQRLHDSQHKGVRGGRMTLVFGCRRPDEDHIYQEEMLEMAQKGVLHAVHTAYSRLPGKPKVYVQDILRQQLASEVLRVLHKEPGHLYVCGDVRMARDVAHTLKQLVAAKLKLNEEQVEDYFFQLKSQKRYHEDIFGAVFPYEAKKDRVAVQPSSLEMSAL

logD [2] | Structure (SMILES) | IC50 [1] [nM] | IC50 (Nitric oxide synthase 3) [nM]
– | N=C(N)SCCF | 140 | 1260
-0.04 | [11CH3]SC(=N)N | – | –
